The values below come from the Kinase Knowledgebase extract (Sharma et al. 2016).

Bounds are passed on as bounds.

For orientation: IC50 means the concentration at which inhibition is half-maximal.

For one experiment, the target named is PIK3CD (Human) (UniProt O00329). Description: Assessment of PIK3CD Kinase Activity.
A further experiment has as its target PIK3CG (human) (UniProt P48736). Description: Assessment of PIK3CG Kinase Activity.
Another experiment concerns the target PIK3CA (human) (UniProt P42336). In words: Assessment of PIK3CA Kinase Activity.
Another experiment concerns the target PIK3CB (Human) (UniProt P42338). Description: Assessment of PIK3CB Kinase Activity.

PIK3CB (Human), sequence (P42338 whole entry, looked up): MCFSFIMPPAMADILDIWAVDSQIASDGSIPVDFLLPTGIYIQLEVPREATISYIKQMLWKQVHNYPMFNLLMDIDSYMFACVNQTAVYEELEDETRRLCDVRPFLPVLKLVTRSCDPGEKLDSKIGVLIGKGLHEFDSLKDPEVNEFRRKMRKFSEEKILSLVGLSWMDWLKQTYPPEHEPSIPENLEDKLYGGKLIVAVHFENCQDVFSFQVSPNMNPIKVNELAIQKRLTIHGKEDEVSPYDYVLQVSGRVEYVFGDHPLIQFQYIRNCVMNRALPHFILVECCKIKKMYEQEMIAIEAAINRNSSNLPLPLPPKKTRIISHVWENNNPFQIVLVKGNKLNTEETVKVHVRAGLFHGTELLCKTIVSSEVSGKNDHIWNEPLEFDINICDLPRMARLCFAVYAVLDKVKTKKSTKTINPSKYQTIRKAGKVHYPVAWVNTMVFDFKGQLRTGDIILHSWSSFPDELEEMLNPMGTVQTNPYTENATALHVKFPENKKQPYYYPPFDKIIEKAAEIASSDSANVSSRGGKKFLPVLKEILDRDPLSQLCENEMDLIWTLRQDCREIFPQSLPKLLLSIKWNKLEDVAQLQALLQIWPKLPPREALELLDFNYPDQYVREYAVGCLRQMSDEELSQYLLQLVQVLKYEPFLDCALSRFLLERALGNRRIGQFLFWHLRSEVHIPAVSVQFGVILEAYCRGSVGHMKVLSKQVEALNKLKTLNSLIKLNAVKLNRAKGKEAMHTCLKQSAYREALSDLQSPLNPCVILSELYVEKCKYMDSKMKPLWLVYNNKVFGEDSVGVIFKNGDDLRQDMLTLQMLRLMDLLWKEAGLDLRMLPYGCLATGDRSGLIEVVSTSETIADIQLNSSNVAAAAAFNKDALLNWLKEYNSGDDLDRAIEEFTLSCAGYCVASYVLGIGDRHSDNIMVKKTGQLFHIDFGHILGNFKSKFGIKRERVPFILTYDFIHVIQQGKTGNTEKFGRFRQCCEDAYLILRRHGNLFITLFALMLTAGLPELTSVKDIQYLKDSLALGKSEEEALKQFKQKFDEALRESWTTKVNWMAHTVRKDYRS
PIK3CG (human), sequence (P48736 whole entry, looked up): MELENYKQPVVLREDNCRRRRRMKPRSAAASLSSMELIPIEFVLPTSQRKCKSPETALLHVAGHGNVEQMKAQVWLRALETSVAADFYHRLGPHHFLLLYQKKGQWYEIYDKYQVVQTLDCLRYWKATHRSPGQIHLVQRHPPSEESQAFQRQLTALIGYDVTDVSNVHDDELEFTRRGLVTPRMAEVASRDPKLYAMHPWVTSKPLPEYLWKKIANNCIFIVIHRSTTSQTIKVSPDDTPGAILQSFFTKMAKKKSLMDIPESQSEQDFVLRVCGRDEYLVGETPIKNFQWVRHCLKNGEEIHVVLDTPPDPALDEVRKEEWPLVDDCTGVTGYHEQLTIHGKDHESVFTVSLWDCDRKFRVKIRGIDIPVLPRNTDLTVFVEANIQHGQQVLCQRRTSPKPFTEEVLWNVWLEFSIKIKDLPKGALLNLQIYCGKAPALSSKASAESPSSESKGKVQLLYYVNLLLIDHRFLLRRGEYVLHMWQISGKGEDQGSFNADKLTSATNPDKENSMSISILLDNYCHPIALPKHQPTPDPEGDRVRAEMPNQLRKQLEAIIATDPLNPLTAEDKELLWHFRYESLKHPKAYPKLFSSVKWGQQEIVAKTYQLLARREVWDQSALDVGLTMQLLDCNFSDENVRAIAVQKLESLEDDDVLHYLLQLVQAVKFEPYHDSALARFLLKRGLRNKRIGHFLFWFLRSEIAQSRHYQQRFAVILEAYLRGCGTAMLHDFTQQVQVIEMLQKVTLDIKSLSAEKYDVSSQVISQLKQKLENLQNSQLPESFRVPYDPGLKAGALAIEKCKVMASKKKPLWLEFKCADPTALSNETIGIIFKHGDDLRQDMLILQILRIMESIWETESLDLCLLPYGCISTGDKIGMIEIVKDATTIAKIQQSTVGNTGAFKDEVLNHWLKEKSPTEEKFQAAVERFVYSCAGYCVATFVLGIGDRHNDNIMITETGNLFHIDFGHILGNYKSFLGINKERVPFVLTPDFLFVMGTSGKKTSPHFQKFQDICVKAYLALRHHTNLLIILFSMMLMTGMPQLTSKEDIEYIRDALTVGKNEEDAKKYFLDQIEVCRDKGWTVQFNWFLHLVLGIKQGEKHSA
PIK3CA (human), sequence (P42336 whole entry, looked up): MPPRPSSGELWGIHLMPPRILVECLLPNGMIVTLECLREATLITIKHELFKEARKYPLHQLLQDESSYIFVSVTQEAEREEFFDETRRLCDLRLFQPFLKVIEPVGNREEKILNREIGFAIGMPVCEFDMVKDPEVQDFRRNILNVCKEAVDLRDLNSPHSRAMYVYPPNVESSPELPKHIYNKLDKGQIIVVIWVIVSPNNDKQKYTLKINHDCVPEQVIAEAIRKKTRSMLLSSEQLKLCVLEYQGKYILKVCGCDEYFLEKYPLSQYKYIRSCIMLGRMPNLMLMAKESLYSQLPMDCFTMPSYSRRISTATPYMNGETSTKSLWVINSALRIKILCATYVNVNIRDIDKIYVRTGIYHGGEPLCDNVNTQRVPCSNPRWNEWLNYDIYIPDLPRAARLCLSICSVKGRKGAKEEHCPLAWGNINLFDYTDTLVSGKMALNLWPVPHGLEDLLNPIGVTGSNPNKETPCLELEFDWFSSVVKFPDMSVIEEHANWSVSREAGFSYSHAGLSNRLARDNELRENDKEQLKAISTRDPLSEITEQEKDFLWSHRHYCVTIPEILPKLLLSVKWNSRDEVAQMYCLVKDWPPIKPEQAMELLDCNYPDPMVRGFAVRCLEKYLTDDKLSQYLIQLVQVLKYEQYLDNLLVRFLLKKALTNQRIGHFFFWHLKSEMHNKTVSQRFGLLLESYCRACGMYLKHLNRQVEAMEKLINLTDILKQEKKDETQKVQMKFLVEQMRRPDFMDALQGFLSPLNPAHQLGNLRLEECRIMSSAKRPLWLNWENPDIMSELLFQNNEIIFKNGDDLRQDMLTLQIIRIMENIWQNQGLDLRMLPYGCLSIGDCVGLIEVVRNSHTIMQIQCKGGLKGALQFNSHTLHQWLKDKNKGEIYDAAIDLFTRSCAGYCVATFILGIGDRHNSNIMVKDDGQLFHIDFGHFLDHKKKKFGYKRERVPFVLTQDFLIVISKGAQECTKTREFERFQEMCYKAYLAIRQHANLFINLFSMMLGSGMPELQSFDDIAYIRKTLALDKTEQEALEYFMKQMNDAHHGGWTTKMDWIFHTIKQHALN
PIK3CD (Human), sequence (O00329 whole entry, looked up): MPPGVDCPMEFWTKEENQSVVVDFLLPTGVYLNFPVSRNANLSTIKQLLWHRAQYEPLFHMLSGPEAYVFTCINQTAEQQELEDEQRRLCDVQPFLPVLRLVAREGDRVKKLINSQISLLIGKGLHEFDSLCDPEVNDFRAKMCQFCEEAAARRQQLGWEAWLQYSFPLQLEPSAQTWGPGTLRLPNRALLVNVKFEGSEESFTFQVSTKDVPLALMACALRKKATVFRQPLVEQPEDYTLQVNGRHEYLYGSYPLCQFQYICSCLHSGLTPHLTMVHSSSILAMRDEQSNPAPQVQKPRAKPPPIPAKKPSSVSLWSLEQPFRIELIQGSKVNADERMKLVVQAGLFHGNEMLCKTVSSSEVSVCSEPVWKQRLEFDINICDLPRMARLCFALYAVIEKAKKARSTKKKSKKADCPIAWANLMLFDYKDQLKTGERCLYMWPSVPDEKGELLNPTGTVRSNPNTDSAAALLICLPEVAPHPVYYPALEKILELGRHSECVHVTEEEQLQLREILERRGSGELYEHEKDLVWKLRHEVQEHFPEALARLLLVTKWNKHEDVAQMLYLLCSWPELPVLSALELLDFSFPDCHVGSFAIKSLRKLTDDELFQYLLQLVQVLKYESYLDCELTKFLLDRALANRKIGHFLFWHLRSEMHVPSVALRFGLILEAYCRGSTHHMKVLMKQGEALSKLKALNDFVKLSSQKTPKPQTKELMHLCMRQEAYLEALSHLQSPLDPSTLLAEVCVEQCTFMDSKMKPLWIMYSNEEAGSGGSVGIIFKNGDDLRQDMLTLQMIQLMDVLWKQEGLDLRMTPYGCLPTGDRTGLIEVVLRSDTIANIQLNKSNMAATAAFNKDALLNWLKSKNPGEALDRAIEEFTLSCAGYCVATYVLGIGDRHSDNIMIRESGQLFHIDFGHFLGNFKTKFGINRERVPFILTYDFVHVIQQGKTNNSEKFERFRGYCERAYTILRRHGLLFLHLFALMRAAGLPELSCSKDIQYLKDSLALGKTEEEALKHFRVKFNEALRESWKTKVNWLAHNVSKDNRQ

On to `C[C@H](Nc1nc(N)nc2cccnc12)c1cc2cccc(Cl)c2c(=O)n1-c1ccc(F)cc1`, for which the IC50 on PIK3CD (Human) was under 0.1 µM; against PIK3CG (human) it was under 0.1 µM; against PIK3CA (human), 0.1 to 1 µM; against PIK3CB (Human), under 0.1 µM.
In the case of `COc1ncc(-c2cccc3cc([C@H](C)Nc4nc(N)nc5cccnc45)n(-c4ccccc4)c(=O)c23)cn1`, the IC50 on PIK3CD (Human) is under 0.1 µM; against PIK3CG (human), under 0.1 µM; against PIK3CA (human) it was over 10 µM; against PIK3CB (Human), over 10 µM.
As to `COc1cncc(-c2cccc3cc([C@H](C)Nc4ncnc5cccnc45)n(-c4ccccc4)c(=O)c23)c1`, the IC50 on PIK3CD (Human) is under 0.1 µM; against PIK3CG (human), under 0.1 µM; against PIK3CA (human) it was 0.1 to 1 µM; against PIK3CB (Human), over 10 µM.
For `COc1nc(N[C@@H](C)c2cc3cccc(Cl)c3c(=O)n2-c2ccccc2)c2ncccc2n1`, the IC50 at PIK3CD (Human), on PIK3CG (human), at PIK3CA (human) and on PIK3CB (Human) was over 10 µM in each case.
Regarding `C[C@H](Nc1ncnc2cccnc12)c1cc2cccc(Cl)c2c(=O)n1C1CC1`, the IC50 is under 0.1 µM at PIK3CD (Human), under 0.1 µM on PIK3CG (human), 0.1 to 1 µM on PIK3CA (human) and under 0.1 µM against PIK3CB (Human).
On to `COc1ncc(-c2cccc3cc([C@H](C)Nc4ccnc5ccnn45)n(-c4ccccc4)c(=O)c23)cn1`, for which the IC50 against PIK3CD (Human) was under 0.1 µM; on PIK3CG (human), 0.1 to 1 µM; on PIK3CA (human), over 10 µM; against PIK3CB (Human), over 10 µM.
Take `C[C@H](Nc1nc(N)nc2cccnc12)c1nc2cccc(Cl)c2c(=O)n1-c1ccccc1`: the IC50 at PIK3CD (Human) was under 0.1 µM; against PIK3CG (human), under 0.1 µM; on PIK3CA (human), 0.1 to 1 µM; at PIK3CB (Human), 0.1 to 1 µM.
As to `C[C@H](Nc1ncnc2cccnc12)c1cc2cccc(Cl)c2c(=O)n1-c1cccc(F)c1`, the IC50 is under 0.1 µM at PIK3CD (Human), under 0.1 µM against PIK3CG (human), 0.1 to 1 µM on PIK3CA (human) and 0.1 to 1 µM at PIK3CB (Human).
Take `CNc1nc(N[C@@H](C)c2cc3cccc(NC)c3c(=O)n2-c2ccccc2)c2ncccc2n1`: the IC50 on PIK3CD (Human) was 0.1 to 1 µM; against PIK3CG (human), under 0.1 µM; at PIK3CA (human), over 10 µM; at PIK3CB (Human), over 10 µM.
On to `C[C@H](Nc1ncnc2cccnc12)c1cc2ccc(F)c(Cl)c2c(=O)n1-c1ccccc1`, for which the IC50 against PIK3CD (Human) was under 0.1 µM; against PIK3CG (human), under 0.1 µM; on PIK3CA (human) it was 0.1 to 1 µM; at PIK3CB (Human) it was 0.1 to 1 µM.
With `C[C@H](Nc1ccnn2ccnc12)c1cc2scc(-c3cnn(C)c3)c2c(=O)n1-c1ccccc1`, the IC50 against PIK3CD (Human) is 0.1 to 1 µM; on PIK3CG (human), 0.1 to 1 µM; on PIK3CA (human) it was over 10 µM; on PIK3CB (Human) it was over 10 µM.
Consider `COc1ncc(-c2cccc3cc([C@H](C)Nc4cc(O)nc5cccnc45)n(-c4ccccc4)c(=O)c23)cn1`, for which the IC50 against PIK3CG (human), at PIK3CA (human) and on PIK3CB (Human) was over 10 µM throughout.
As for `CNc1nc(N[C@@H](C)c2cc3cccc(-c4cnc(C)nc4)c3c(=O)n2-c2ccccc2)c2ncccc2n1`, the IC50 on PIK3CD (Human) was 0.1 to 1 µM; on PIK3CG (human) it was 0.1 to 1 µM; on PIK3CA (human), over 10 µM; against PIK3CB (Human) it was over 10 µM.
On to `C[C@H](Nc1ncnc(N)c1C#N)c1cc2cccc(C(F)(F)F)c2c(=O)n1-c1ccccc1`, for which the IC50 against PIK3CD (Human) is under 0.1 µM; against PIK3CG (human), under 0.1 µM; against PIK3CA (human), over 10 µM; on PIK3CB (Human), over 10 µM.
Regarding `CNc1nc(N[C@@H](C)c2cc3cccc(-c4cnc(OC)nc4)c3c(=O)n2-c2ccccc2)c2ncccc2n1`, the IC50 against PIK3CD (Human) is under 0.1 µM; at PIK3CG (human), 0.1 to 1 µM; at PIK3CA (human) it was over 10 µM; against PIK3CB (Human), over 10 µM.
As for `C[C@H](Nc1nc(O)nc2[nH]cnc12)c1cc2cccc(C(F)(F)F)c2c(=O)n1-c1cccc(F)c1`, the IC50 against PIK3CD (Human), against PIK3CG (human), on PIK3CA (human) and against PIK3CB (Human) was over 10 µM throughout.
With `C[C@H](Nc1ncnc2cccnc12)c1cc2cccc(C(=O)O)c2c(=O)n1-c1ccccc1`, the IC50 on PIK3CD (Human) was over 10 µM; on PIK3CG (human), 0.1 to 1 µM; against PIK3CA (human) it was over 10 µM; against PIK3CB (Human) it was over 10 µM.
In the case of `COc1ncc(-c2cccc3cc([C@H](C)Nc4ncnc5cccnc45)n(-c4ccccc4)c(=O)c23)cn1`, the IC50 against PIK3CD (Human) was under 0.1 µM; against PIK3CG (human) it was under 0.1 µM; against PIK3CA (human), over 10 µM; against PIK3CB (Human), over 10 µM.
As to `C[C@H](Nc1cc(Cl)ncc1C#N)c1cc2cccc(Cl)c2c(=O)n1-c1ccccc1`, the IC50 against PIK3CG (human), against PIK3CA (human) and at PIK3CB (Human) was over 10 µM throughout.
As to `C[C@H](Nc1nc(Cl)ns1)c1cc2cccc(Cl)c2c(=O)n1-c1ccccc1`, the IC50 at PIK3CD (Human), at PIK3CG (human), at PIK3CA (human) and at PIK3CB (Human) was over 10 µM in each case.
Turning to `C[C@H](Nc1nc(N)nc2cccnc12)c1cc2cccc(Cl)c2c(=O)n1-c1ccccc1`, the IC50 against PIK3CD (Human) was under 0.1 µM; against PIK3CG (human), under 0.1 µM; at PIK3CA (human), 0.1 to 1 µM; on PIK3CB (Human) it was under 0.1 µM.
Regarding `C[C@H](Nc1ncnn2cncc12)c1cc2cccc(C(F)(F)F)c2c(=O)n1-c1ccccc1`, the IC50 on PIK3CG (human), against PIK3CA (human) and against PIK3CB (Human) was over 10 µM each time.
In the case of `C[C@H](Nc1ncnn2cncc12)c1cc2cccc(Cl)c2c(=O)n1-c1cccc(F)c1`, the IC50 at PIK3CG (human), against PIK3CA (human) and against PIK3CB (Human) was over 10 µM in each case.
For the molecule `C[C@H](Nc1nc(Cl)nc2nc(Cl)cnc12)c1cc2cccc(Cl)c2c(=O)n1-c1ccccc1`, the IC50 against PIK3CG (human), against PIK3CA (human) and at PIK3CB (Human) was over 10 µM in each case.
Turning to `C[C@H](Nc1ncnc2cccnc12)c1cc2c(F)ccc(Cl)c2c(=O)n1-c1ccccc1`, the IC50 is under 0.1 µM on PIK3CG (human), 0.1 to 1 µM against PIK3CA (human) and 0.1 to 1 µM at PIK3CB (Human).
For `C[C@H](Nc1nc(Cl)nc2cccnc12)c1cc2cccc(C(F)(F)F)c2c(=O)n1-c1ccccc1`, the results for the IC50 against PIK3CG (human), against PIK3CA (human) and at PIK3CB (Human) were 0.1 to 1 µM, over 10 µM and over 10 µM, respectively.
As to `C[C@H](Nc1nc(Cl)nc2cccnc12)c1cc2cccc(Cl)c2c(=O)n1-c1ccccc1`, the IC50 was under 0.1 µM on PIK3CG (human), over 10 µM on PIK3CA (human) and over 10 µM on PIK3CB (Human).
Turning to `C[C@H](Nc1ncnc2cccnc12)c1cc2scc(-c3cnn(C)c3)c2c(=O)n1-c1ccccc1`, the IC50 is under 0.1 µM at PIK3CG (human), over 10 µM on PIK3CA (human) and over 10 µM on PIK3CB (Human).
For the molecule `C[C@H](Nc1ncc2[nH]cnc2n1)c1cc2cccc(Cl)c2c(=O)n1-c1ccccc1`, the IC50 on PIK3CG (human), against PIK3CA (human) and on PIK3CB (Human) was over 10 µM in each case.
As for `Cc1ccnc2cc(C(C)Nc3ncnc4cccnc34)[nH]c(=O)c12` (stereo not given), the IC50 against PIK3CG (human), on PIK3CA (human) and at PIK3CB (Human) was over 10 µM in each case.
Turning to `C[C@H](Nc1nc(N)nc2cccnc12)c1cc2cccc(N(C)C)c2c(=O)n1-c1ccccc1`, the IC50 on PIK3CG (human) was 0.1 to 1 µM; at PIK3CA (human), over 10 µM; against PIK3CB (Human), over 10 µM.
Regarding `C[C@H](NCc1cnc2cccnn12)c1cc2cccc(Cl)c2c(=O)n1-c1ccccc1`, the IC50 on PIK3CG (human), at PIK3CA (human) and against PIK3CB (Human) was over 10 µM throughout.
